The values that follow come from publication PMC11062922 (Nature Chemical Biology, 2023).

The target of this assay is T1, GAK (Homo sapiens, UniProt O14976).
T1 construct: endogenous in cells
T1 sequence (O14976 1-1311): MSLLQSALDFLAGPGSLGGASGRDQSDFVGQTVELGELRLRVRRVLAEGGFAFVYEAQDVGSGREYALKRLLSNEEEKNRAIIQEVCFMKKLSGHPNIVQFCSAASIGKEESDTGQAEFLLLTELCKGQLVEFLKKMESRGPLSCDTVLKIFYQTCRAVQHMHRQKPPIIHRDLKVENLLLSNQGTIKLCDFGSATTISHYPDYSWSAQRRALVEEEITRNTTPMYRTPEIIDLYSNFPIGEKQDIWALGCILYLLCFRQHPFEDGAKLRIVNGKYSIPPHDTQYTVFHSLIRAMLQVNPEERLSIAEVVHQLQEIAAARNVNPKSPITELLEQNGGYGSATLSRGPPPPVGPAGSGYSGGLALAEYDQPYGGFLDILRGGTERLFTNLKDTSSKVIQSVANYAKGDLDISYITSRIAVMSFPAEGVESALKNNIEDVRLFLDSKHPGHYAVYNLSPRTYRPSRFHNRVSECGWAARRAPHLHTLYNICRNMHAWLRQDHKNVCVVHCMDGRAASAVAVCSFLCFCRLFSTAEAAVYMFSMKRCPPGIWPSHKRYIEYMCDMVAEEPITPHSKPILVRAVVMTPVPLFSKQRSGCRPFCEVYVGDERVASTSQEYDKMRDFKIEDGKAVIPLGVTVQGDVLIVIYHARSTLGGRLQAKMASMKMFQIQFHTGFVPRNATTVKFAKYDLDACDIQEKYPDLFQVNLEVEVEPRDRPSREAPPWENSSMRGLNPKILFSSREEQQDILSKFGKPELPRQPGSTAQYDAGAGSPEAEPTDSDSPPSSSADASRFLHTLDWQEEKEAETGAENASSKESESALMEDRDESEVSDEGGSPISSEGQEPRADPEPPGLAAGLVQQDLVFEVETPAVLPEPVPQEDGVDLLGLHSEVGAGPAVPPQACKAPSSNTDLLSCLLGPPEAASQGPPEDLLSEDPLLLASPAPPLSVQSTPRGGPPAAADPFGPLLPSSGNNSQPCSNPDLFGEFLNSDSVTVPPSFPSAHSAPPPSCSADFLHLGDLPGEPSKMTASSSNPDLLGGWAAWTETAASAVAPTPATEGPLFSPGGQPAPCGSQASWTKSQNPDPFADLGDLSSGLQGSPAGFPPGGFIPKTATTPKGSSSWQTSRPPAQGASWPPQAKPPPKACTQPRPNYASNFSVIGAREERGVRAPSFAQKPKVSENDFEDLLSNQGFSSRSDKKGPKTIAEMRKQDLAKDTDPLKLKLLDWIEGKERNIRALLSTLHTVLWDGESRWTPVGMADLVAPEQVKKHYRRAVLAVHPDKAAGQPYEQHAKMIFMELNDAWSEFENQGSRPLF
As to the kind of experiment: Kinobeads two-dose competition binding: GAK. As to conditions: for CATDS: target GAK. From the text:
Briefly, Kinobeads comprise seven broad-spectrum small molecule kinase inhibitors immobilized on Sepharose beads. […]. Compounds of interest are set to compete for target protein binding with Kinobeads in the lysate and the amount of a given protein bound to Kinobeads in the presence of a compound can be quantified relative to a dimethylsulfoxide (DMSO) vehicle control by label-free mass spectrometry. This assay measures the physical interaction of a compound with thousands of endogenous proteins in parallel and, when systematically increasing the concentration of competitor, enables the calculation of an apparent interaction constant ( Kdapp ) for each compound and protein.
Kinobeads pulldown experiments were performed as described previously[13],[14],[17] with minor modification. […] The protein concentration was adjusted to 5 mg ml^−1. Kinase inhibitors were spiked into 0.5 ml of cell lysate at final concentrations of 100 and 1,000 nM (or DMSO, 0.3, 1, 3, 10, 30, 100, 300 and 1,000 nM for full dose experiments). […] Lysates were incubated for 45 min at 4 °C. Subsequently, lysates were incubated with Kinobeads ε (17.5 µl of settled beads) for 30 min at 4 °C. To assess the degree of protein depletion from the lysates by Kinobeads, the flow through of the DMSO control was recovered for a pulldown of pulldown experiment where the lysate was incubated a second time with fresh Kinobeads. Beads were washed in three steps with buffer containing 0.4%, 0.2% and no IGEPAL. Bound proteins were reduced with 50 mM DTT in 8 M Urea, 40 mM Tris-HCl pH 7.4 for 30 min at room temperature. After alkylation with 55 mM chloroacetamide, the urea concentration was reduced to 1–2 M and proteins were digested with trypsin. Acidified peptides were desalted and concentrated using SepPak tC18 µEluation plates (Waters). Samples were frozen, dried by vacuum centrifugation and stored at −20 °C.
Each kinase inhibitor was processed together with all DMSO controls of the same plate. Additionally, each search was supplemented with five high quality DMSO controls for consistent peptide identification and protein grouping. The resultant file (proteinGroups.txt) was used for subsequent filtering, normalization, data visualization and target annotation that was automatically performed by a data processing pipeline built in house that used R (including the ‘drc’ and ‘heatmap’ packages). First, reverse hits, potential contaminants and not quantified proteins in the DMSO control samples were discarded. Protein raw and label-free quantification intensities were normalized to the median DMSO control intensity to obtain relative residual binding intensities for each protein group at every inhibitor concentration and standard deviations of the DMSO control intensity were calculated. IC50 values were estimated based on the following equation IC50=I×100−inhibition/inhibition where [I] is the inhibitor concentration that was used for IC50 calculation and ‘inhibition’ the relative residual binding intensity. […]. Estimated Kdapp values were then calculated by multiplying the estimated IC50 values with a protein-dependent correction factor that was limited to a maximum value of one. The correction factor accounts for the depletion of a target protein from the lysate by Kinobeads. The depletion can be measured by the ratio of the amount of protein captured in two consecutive pulldowns of the same DMSO control lysate. In this study, correction factors were determined in separate experiments using the same lysate mixture and the same bead batch. Correction factors were set to the median of all correction factors. Targets of kinase inhibitors were annotated using the previously published random forest classifier. A training data set was annotated manually. […]

Like-named read-outs stand apart in the source and are kept apart here.

In the case of `CCN1CCN(Cc2ccc(Nc3ncc(F)c(-c4cc(F)c5nc(C)n(C(C)C)c5c4)n3)nc2)CC1` [Abemaciclib], the CATDS came to 0.

Compound `N#CC1(c2ccc(NC(=O)c3cccnc3NCc3ccncc3)cc2)CCCC1` [Apatinib] returned a CATDS of 0. `C#Cc1cccc(Nc2ncnc3cc(OC)c(OC4CCN(C)CC4)cc23)c1` [BI00007366]: the potency estimated from few doses (Kinobeads two-dose, Drugmatrix - all 2, read-out: apparent Kd GAK) is 634 nM.

The compound `CN(C)C/C=C/C(=O)Nc1cc2c(Nc3ccc(F)c(Cl)c3)ncnc2cc1O[C@H]1CCOC1` [Afatinib] came in with a CATDS of 0. Turning to `C[C@]12O[C@H](C[C@]1(O)CO)n1c3ccccc3c3c4c(c5c6ccccc6n2c5c31)CNC4=O` [Lestaurtinib], where the note is “read-out: Lestaurtinib Drugmatrix value, Gene Name GAK”, the potency estimated from few doses is 577 nM. On to `Nc1ncnc2[nH]c(-c3ccccc3)nc12` [AH5015_KCGS], for which the CATDS worked out at 0.09213. Same read-out and setting: under `CCc1cc2c(cc1N1CCC(N3CCOCC3)CC1)C(C)(C)c1[nH]c3cc(C#N)ccc3c1C2=O` [Alectinib] stands 0.6004.
